What was measured:
Conditions in all cases: Compound concentration 1.0 uM
[1] = molecular target: T1, Serine/threonine-protein kinase ULK3 (Homo sapiens) (UniProt Q6PHR2)
T1 sequence (whole entry): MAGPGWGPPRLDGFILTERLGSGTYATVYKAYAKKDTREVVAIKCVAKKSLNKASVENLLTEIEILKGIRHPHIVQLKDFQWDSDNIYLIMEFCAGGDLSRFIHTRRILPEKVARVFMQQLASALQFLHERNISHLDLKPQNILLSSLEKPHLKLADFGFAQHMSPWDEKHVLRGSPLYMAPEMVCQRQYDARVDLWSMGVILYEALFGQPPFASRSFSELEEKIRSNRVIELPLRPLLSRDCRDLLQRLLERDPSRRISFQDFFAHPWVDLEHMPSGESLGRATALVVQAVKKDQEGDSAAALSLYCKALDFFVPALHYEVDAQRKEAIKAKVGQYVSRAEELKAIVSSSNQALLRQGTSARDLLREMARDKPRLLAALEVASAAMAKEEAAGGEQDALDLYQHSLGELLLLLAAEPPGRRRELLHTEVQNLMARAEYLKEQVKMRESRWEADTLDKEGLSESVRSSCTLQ

[2] = molecular target: T2, Serine/threonine-protein kinase Nek9 (Homo sapiens) (UniProt Q8TD19)
T2 sequence (whole entry): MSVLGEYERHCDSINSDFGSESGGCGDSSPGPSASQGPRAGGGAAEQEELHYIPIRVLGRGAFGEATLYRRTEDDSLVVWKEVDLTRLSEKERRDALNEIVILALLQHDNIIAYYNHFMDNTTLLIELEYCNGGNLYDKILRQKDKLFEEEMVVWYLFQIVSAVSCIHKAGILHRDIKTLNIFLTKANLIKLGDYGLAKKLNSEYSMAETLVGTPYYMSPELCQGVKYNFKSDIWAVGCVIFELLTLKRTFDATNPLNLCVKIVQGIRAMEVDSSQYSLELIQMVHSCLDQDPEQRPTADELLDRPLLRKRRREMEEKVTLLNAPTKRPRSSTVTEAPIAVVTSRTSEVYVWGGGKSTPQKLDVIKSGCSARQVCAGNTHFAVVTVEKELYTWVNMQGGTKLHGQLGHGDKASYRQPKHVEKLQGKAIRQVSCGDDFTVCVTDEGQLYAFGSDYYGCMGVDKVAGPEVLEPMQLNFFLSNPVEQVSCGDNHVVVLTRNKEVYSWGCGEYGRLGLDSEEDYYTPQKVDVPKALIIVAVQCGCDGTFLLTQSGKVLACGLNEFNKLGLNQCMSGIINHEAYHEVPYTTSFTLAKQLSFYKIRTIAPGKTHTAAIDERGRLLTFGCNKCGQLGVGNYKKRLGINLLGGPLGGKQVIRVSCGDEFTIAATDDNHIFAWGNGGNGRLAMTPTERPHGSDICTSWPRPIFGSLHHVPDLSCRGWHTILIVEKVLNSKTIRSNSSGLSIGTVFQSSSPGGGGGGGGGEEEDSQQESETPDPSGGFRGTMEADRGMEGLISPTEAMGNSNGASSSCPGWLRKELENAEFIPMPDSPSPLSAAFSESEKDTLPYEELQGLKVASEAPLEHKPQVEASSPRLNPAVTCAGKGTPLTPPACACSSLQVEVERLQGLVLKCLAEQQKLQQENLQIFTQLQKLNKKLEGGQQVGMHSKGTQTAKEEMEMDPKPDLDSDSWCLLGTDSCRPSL

[3] = molecular target: T3, Inhibitor of nuclear factor kappa-B kinase subunit epsilon (Homo sapiens) (UniProt Q14164)
T3 sequence (whole entry): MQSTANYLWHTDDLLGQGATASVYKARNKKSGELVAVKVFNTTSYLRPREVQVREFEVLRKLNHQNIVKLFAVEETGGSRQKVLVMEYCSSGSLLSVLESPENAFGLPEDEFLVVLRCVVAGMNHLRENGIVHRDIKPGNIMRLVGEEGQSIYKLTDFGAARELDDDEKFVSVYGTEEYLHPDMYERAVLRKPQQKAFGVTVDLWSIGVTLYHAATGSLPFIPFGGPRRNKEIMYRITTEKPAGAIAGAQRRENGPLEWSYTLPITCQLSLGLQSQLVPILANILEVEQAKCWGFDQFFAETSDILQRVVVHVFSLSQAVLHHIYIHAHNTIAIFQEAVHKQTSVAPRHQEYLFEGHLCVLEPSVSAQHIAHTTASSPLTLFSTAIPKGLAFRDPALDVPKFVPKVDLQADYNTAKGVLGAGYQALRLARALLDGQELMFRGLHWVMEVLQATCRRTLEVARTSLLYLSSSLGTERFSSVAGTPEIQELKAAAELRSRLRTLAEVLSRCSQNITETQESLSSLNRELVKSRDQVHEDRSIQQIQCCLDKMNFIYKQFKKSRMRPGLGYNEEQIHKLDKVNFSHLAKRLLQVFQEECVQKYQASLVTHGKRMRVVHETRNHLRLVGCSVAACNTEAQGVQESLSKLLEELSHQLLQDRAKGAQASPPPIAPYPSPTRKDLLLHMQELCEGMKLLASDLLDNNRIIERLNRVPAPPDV

[4] = molecular target: T4, Serine/threonine-protein kinase BRSK2 (Homo sapiens) (UniProt Q8IWQ3)
T4 sequence (whole entry): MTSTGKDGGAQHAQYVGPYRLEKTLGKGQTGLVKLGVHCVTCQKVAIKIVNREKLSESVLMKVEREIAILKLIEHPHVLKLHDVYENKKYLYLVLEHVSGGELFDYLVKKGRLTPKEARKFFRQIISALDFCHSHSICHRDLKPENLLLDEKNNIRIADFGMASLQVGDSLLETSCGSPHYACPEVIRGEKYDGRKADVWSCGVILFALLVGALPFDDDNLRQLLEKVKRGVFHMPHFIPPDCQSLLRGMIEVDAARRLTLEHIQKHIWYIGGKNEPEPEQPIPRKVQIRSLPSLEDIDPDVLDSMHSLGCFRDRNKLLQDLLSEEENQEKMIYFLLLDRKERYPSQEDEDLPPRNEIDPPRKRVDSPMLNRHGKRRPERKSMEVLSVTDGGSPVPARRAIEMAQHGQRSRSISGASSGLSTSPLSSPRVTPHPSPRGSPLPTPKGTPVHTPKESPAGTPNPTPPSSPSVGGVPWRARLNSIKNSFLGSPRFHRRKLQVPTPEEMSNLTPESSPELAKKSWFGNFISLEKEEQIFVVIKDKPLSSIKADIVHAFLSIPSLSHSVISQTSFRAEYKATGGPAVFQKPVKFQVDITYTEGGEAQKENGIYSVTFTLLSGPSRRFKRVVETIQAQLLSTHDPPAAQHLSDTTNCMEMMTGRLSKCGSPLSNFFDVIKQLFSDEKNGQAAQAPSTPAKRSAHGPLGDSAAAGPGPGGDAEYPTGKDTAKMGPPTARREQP

[5] = molecular target: Insulin receptor (Homo sapiens) (UniProt P06213)
[6] = molecular target: Tyrosine-protein kinase HCK (Homo sapiens) (UniProt P08631)

Measured: % residual kinase activity

Insulin receptor (Homo sapiens), sequence (P06213 28-758 limits assumed): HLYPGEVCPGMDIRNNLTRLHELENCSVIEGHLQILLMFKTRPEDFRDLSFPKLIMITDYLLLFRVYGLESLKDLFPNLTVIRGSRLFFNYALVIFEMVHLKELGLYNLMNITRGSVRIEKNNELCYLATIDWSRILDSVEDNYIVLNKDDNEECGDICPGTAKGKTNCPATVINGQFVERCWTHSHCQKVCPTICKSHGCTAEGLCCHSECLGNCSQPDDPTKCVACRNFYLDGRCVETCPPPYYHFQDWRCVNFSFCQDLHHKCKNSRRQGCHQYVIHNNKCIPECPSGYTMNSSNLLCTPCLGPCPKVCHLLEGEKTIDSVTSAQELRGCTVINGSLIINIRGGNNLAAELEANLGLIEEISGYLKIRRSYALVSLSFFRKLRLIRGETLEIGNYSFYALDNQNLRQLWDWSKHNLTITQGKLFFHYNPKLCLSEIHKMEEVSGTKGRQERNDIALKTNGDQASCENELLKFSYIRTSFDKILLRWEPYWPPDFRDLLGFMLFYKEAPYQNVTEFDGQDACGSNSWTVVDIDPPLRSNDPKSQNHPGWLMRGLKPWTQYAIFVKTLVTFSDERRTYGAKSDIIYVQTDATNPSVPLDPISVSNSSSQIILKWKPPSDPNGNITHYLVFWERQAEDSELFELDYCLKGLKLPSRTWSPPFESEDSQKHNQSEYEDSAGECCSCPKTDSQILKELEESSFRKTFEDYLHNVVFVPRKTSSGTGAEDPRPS
Insulin receptor (Homo sapiens), sequence (P06213 763-1382 limits assumed): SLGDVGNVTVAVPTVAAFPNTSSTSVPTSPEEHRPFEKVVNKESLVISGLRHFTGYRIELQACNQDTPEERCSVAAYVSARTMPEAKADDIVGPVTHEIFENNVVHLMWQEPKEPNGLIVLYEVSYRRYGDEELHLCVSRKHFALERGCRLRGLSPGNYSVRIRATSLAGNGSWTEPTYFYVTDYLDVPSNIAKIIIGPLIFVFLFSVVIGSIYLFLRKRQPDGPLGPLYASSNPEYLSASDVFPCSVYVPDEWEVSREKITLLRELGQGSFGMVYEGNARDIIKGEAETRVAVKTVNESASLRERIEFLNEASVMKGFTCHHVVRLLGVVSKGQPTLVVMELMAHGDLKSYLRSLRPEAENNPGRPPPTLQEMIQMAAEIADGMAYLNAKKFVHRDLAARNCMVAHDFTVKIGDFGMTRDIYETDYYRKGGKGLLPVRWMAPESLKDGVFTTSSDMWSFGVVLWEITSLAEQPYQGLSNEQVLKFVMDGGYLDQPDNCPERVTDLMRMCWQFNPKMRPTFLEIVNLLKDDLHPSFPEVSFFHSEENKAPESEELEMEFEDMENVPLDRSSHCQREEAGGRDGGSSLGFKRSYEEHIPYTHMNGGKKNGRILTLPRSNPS
Tyrosine-protein kinase HCK (Homo sapiens), sequence (P08631 2-526 limits assumed): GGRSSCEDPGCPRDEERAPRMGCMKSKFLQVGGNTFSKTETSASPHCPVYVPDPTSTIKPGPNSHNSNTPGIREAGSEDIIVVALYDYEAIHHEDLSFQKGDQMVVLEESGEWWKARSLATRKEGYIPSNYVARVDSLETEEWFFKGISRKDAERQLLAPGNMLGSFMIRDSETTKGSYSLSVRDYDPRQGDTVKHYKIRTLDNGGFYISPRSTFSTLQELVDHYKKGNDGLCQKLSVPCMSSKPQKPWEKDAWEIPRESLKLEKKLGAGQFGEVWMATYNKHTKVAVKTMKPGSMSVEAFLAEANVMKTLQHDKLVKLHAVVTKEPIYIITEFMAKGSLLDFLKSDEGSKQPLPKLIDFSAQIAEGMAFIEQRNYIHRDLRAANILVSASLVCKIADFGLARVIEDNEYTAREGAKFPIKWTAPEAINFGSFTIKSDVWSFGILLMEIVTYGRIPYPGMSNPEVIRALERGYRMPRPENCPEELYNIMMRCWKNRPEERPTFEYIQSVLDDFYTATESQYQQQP

CN1CCN(c2cnc3c(C4CCN(C(=O)c5ccc(OC(F)(F)F)cc5N)CC4)ncnc3c2)CC1 [BAY-885]
inactive: [1] 98% | [2] 92% | [3] 107% | [4] 102% | [5] 99% | [6] 107%
